Assay results: the supplement of paper PMC13380429

Assays:
Conditions in all cases: 72 h
HepG2 [1] = assay: cell viability relative to DMSO; higher = less toxic
U2OS [2] = assay: as above
Vero E6 [3] = assay: as above
Calu-3 [4] = assay: as above
Caco-2 [5] = assay: as above
HepG2 [6] = assay: relative viability EC50 (midpoint between 100% and the lowest measured viability); higher = less toxic
U2OS [7] = assay: as above
Vero E6 [8] = assay: as above
Calu-3 [9] = assay: as above
Caco-2 [10] = assay: as above
HepG2 [11] = assay: drug sensitivity score (DSS) for viability; higher = more toxic; extreme values may be limits of the assay
U2OS [12] = assay: as above
Vero E6 [13] = assay: as above
Calu-3 [14] = assay: as above
Caco-2 [15] = assay: as above

Compound | cell viability (HepG2 [1]; 1 nM) | cell viability (HepG2 [1]; 10 nM) | cell viability (HepG2 [1]; 100 nM) | cell viability (HepG2 [1]; 1000 nM) | cell viability (HepG2 [1]; 10000 nM) | cell viability (U2OS [2]; 1 nM) | cell viability (U2OS [2]; 10 nM) | cell viability (U2OS [2]; 100 nM) | cell viability (U2OS [2]; 1000 nM) | cell viability (U2OS [2]; 10000 nM) | cell viability (Vero E6 [3]; 1 nM) | cell viability (Vero E6 [3]; 10 nM) | cell viability (Vero E6 [3]; 100 nM) | cell viability (Vero E6 [3]; 1000 nM) | cell viability (Vero E6 [3]; 10000 nM) | cell viability (Calu-3 [4]; 1 nM) | cell viability (Calu-3 [4]; 10 nM) | cell viability (Calu-3 [4]; 100 nM) | cell viability (Calu-3 [4]; 1000 nM) | cell viability (Calu-3 [4]; 10000 nM) | cell viability (Caco-2 [5]; 1 nM) | cell viability (Caco-2 [5]; 10 nM) | cell viability (Caco-2 [5]; 100 nM) | cell viability (Caco-2 [5]; 1000 nM) | cell viability (Caco-2 [5]; 10000 nM) | relative viability EC50 (HepG2 [6]) | relative viability EC50 (U2OS [7]) | relative viability EC50 (Vero E6 [8]) | relative viability EC50 (Calu-3 [9]) | relative viability EC50 (Caco-2 [10]) | drug sensitivity score (HepG2 [11]) | drug sensitivity score (U2OS [12]) | drug sensitivity score (Vero E6 [13]) | drug sensitivity score (Calu-3 [14]) | drug sensitivity score (Caco-2 [15])
Oc1ccc(Cl)c2cccnc12 [cloxyquin] | 102% | 98.9% | 116% | 93.4% | 88.2% | 94.4% | 99.3% | 99.4% | 99.8% | 97.4% | 99.7% | 105% | 99.9% | 101% | 97.7% | 87.9% | 100% | 96% | 106% | 105% | 96.1% | 98.1% | 104% | 96.9% | 95% | > 10 µM | > 10 µM | > 10 µM | > 10 µM | > 10 µM | 0.3 | 0 | 0 | 0 | 0
NS(=O)(=O)c1cc2c(cc1Cl)NC(C1CC3C=CC1C3)NS2(=O)=O (stereo not given) [cyclothiazide] | 90.8% | 104% | 88.9% | 99.9% | 93.8% | 93.7% | 95.2% | 99.9% | 94.3% | 97.7% | 94.4% | 102% | 91.2% | 92.5% | 105% | 101% | 96.7% | 95.3% | 112% | 100% | 92.4% | 89% | 103% | 81.8% | 91.2% | > 10 µM | > 10 µM | > 10 µM | > 10 µM | > 10 µM | 0 | 0 | 0 | 0 | 0
O=c1ccc2ccc(O)c(O)c2o1 [daphnetin] | 102% | 105% | 87.3% | 87.5% | 82.1% | 111% | 108% | 101% | 102% | 99.4% | 106% | 100% | 98.3% | 93% | 101% | 101% | 111% | 102% | 99.9% | 110% | 105% | 105% | 104% | 107% | 90.5% | > 10 µM | > 10 µM | > 10 µM | > 10 µM | > 10 µM | 3.3 | 0 | 0 | 0 | 0
C[C@]1(COc2ccc(N3CCC(Oc4ccc(OC(F)(F)F)cc4)CC3)cc2)Cn2cc([N+](=O)[O-])nc2O1 [delamanid] | 96.5% | 97.8% | 92.6% | 99.5% | 104% | 105% | 98.2% | 103% | 98.3% | 102% | 104% | 102% | 101% | 102% | 99.8% | 93% | 98% | 103% | 91.9% | 102% | 103% | 96.9% | 103% | 90.5% | 94.3% | > 10 µM | > 10 µM | > 10 µM | > 10 µM | > 10 µM | 0 | 0 | 0 | 0 | 0
CC(C)=CCC/C(C)=C/CC/C(C)=C/CC[C@]1(C)CCc2cc(O)cc(C)c2O1 [delta-tocotrienol] | 90.7% | 85.3% | 98.6% | 91% | 97.1% | 97.5% | 99.8% | 98.2% | 102% | 97.9% | 107% | 93.1% | 104% | 96.9% | 108% | 94.6% | 102% | 93.2% | 101% | 113% | 99.3% | 99.1% | 81.7% | 97.1% | 105% | > 10 µM | > 10 µM | > 10 µM | > 10 µM | > 10 µM | 0 | 0 | 0 | 0 | 0
CC(=O)OCC(=O)[C@H]1CC[C@H]2[C@@H]3CCC4=CC(=O)CC[C@]4(C)[C@H]3CC[C@]12C [deoxycorticosterone-acetate] | 107% | 110% | 95.9% | 91.5% | 107% | 96.8% | 100% | 103% | 102% | 99.2% | 100% | 99.8% | 96.2% | 98.7% | 91.7% | 98.4% | 99.8% | 100% | 91.9% | 107% | 85.4% | 114% | 100% | 122% | 101% | > 10 µM | > 10 µM | > 10 µM | > 10 µM | > 10 µM | 0 | 0 | 0 | 0 | 0
CN(C)CCCSC(=N)N [dimaprit] | 99% | 106% | 99.1% | 104% | 93.2% | 98.5% | 103% | 95.1% | 96.2% | 96.8% | 99.9% | 98.8% | 103% | 100% | 96.2% | 109% | 103% | 109% | 99.1% | 96.7% | 99% | 102% | 93.9% | 96.3% | 97.4% | > 10 µM | > 10 µM | > 10 µM | > 10 µM | > 10 µM | 0 | 0 | 0 | 0 | 0
